Like-named read-outs stand apart in the source and are kept apart here. Blank lines part the entries; values can stand above or below the compound they belong to.
Test system: PMA-differentiated THP-1 cells
Test: hTHP-1 assay containing 10% fetal bovine serum (IL-1β production, Tables B5 and B6)
Type: cell-based, human
Protocol: The following protocol is suitable for testing the activity of the compounds disclosed herein. Procedure 1: IL-1β Production in PMA-Differentiated THP-1 Cells Stimulated with Gramicidin.
THP-1 cells were purchased from the American Type Culture Collection and sub-cultured according to instructions from the supplier. Cells were cultured in complete RPMI 1640 (containing 10% heat inactivated FBS, penicillin (100 units/ml) and streptomycin (100 μg/ml)), and maintained in log phase prior to experimental setup. Prior to the experiment, compounds were dissolved in dimethyl sulfoxide (DMSO) to generate a 30 mM stock. The compound stock was first pre-diluted in DMSO to 3, 0.34, 0.042 and 0.0083 mM intermediate concentrations and subsequently spotted using Echo550 liquid handler into an empty 384-well assay plate to achieve desired final concentration (e.g. 100, 33, 11, 3.7, 1.2, 0.41, 0.14, 0.046, 0.015, 0.0051, 0.0017 μM). DMSO was backfilled in the plate to achieve a final DMSO assay concentration of 0.37%. The plate was then sealed and stored at room temperature until required.
THP-1 cells were treated with PMA (Phorbol 12-myristate 13-acetate) (20 ng/ml) for 16-18 hours. On the day of the experiment the media was removed and adherent cells were detached with trypsin for 5 minutes. […] The cells were plated in the 384-well assay plate containing the spotted compounds at a density of 50,000 cells/well (final assay volume 50 μl). Cells were incubated with compounds for 1 hour and then stimulated with gramicidin (5 μM) (Enzo) for 2 hours. Plates were then centrifuged at 340 g for 5 min. Cell free supernatant (40 μL) was collected using a 96—CHannel PlateMaster (Gilson) and the production of IL-1β was evaluated by HTRF (cisbio). The plates were incubated for 18 h at 4° C. and read using the preset HTRF program (donor emission at 620 nm, acceptor emission at 668 nm) of the SpectraMax i3x spectrophotometer (Molecular Devices, software SoftMax 6). A vehicle only control and a dose titration of CRID3 (100-0.0017 μM) were run concurrently with each experiment.
Procedure 2: IL-1β Production in PMA-Differentiated THP-1 Cells Stimulated with Gramicidin.
THP-1 cells were purchased from the American Type Culture Collection and sub-cultured according to instructions from the supplier. Prior to experiments, cells were cultured in complete RPMI 1640 (containing 10% heat inactivated FBS, penicillin (100 units/ml) and streptomycin (100 μg/ml)), and maintained in log phase prior to experimental setup. Prior to the experiment THP-1 were treated with PMA (Phorbol 12-myristate 13-acetate) (20 ng/ml) for 16-18 hours. Compounds were dissolved in dimethyl sulfoxide (DMSO) to generate a 30mM stock. On the day of the experiment the media was removed and adherent cells were detached with trypsin for 5 minutes. […] The cells were plated in a 384-well plate at a density of 50,000 cells/well (final assay volume […]). Compounds were first dissolved in assay medium to obtain a 5× top concentration of 500 μM. 10 step dilutions (1:3) were then undertaken in assay medium containing 1.67% DMSO. 5× compound solutions were added to the culture medium to achieve desired final concentration (e.g. 100, 33, 11, 3.7, 1.2, 0.41, 0.14, 0.046, 0.015, 0.0051, 0.0017 μM). Final DMSO concentration was at 0.37%. Cells were incubated with compounds for 1 hour and then stimulated with gramicidin (5 μM) (Enzo) for 2 hours. Plates were then centrifuged at 340 g for 5 min. Cell free supernatant (40 μL) was collected using a 96—CHannel PlateMaster (Gilson) and the production of IL-1β was evaluated by HTRF (cisbio). A vehicle only control and a dose titration of CRID3 (100-0.0017 μM) were run concurrently with each experiment.
Tables B1, B2, B3, and B4 show the biological activity of compounds in hTHP-1 assay containing 2% fetal bovine serum. […] Key: <0.008 μM=“++++++”; ≥0.008 and <0.04 μM=“+++++”; >0.04 and <0.2 μM=“++++”; ≥0.2 and <1 μM=“+++”; ≥1 and <5 μM=“++”; ≥5 and <30 μM=“+”. […]

[1] = Homo sapiens, THP-1, read-out: hTHP-1 IC50 in 10% FBS, hTHP-1 assay containing 10% fetal bovine serum, Table B5
[2] = Homo sapiens, THP-1, read-out: hTHP-1 IC50 in 10% FBS, hTHP-1 assay containing 10% fetal bovine serum, Table B6

SMILES: Cc1c(C(F)(F)F)nc2c(c1NC(=O)N=S(N)(=O)c1cnc(C(F)F)s1)CCC2 (single isomer, unassigned) [Compound 1007b, (S) or (R)-2-(Difluoromethyl)-N′-((3-methyl-2-(trifluoromethyl)-6,7-dihydro-5H-cyclopenta[b]pyridin-4-yl)carbamoyl)thiazole-5-sulfonimidamide]
IC50 (read-out: hTHP-1 IC50 in 10% FBS, hTHP-1 assay containing 10% fetal bovine serum, Table B5, listed as 828): 5000 to 30000 nM

SMILES: Cc1c(C(F)(F)F)ncc(-c2ccnc(C#N)c2)c1NC(=O)N=S(N)(=O)c1sc(C(C)(C)O)nc1CO (centres unmarked) [Compound 812]
IC50 [1]: 40 to 200 nM

SMILES: CCn1cc(F)c(S(N)(=O)=NC(=O)Nc2c3c(nc(C(F)(F)F)c2C(F)(F)F)CCC3)n1 (centres unmarked) [Example 856, N′-((2,3-bis(trifluoromethyl)-6,7-dihydro-5H-cyclopenta[b]pyridin-4-yl)carbamoyl)-1-ethyl-4-fluoro-1H-pyrazole-3-sulfonimidamide]
IC50 [2]: 40 to 200 nM

SMILES: Cc1nc2c(c(NC(=O)N=S(N)(=O)c3scc(C(C)(C)O)c3F)c1-c1ccccc1)CCC2 (centres unmarked) [Compound 1110, 3-Fluoro-4-(2-hydroxy-propan-2-yl)-N′-((2-methyl-3-phenyl-6,7-dihydro-5H-cyclopenta [b]pyridin-4-yl)carbamoyl)thiophene-2-sulfonimidamide]
IC50 [1]: 40 to 200 nM

SMILES: Cc1c(C(F)(F)F)nc2c(c1NC(=O)N=S(N)(=O)c1cnc(C(F)F)s1)CCC2 (single isomer, unassigned) [Compound 1007a, (R) or (S)-2-(Difluoromethyl)-N′-((3-methyl-2-(trifluoromethyl)-6,7-dihydro-5H-cyclopenta[b]pyridin-4-yl)carbamoyl)thiazole-5-sulfonimidamide]
IC50 (read-out: hTHP-1 IC50 in 10% FBS, hTHP-1 assay containing 10% fetal bovine serum, Table B5, listed as 829): 1000 to 5000 nM

SMILES: CCn1cc(F)c(S(N)(=O)=NC(=O)Nc2c3c(nc(C)c2C(F)(F)F)CCC3)n1 (centres unmarked) [Compound 1012, 1-Ethyl-4-fluoro-N′-((2-methyl-3-(trifluoromethyl)-6,7-dihydro-5H-cyclopenta[b]pyridin-4-yl)carbamoyl)-1H-pyrazole-3-sulfonimidamide]
IC50 [1]: 40 to 200 nM

SMILES: CCn1cc(F)c(S(N)(=O)=NC(=O)Nc2c3c(nc(C)c2C(F)(F)F)CCC3)n1 (single isomer, unassigned) [Compound 1116a, (R) or (S)-1-ethyl-4-fluoro-N′-((2-methyl-3-(trifluoromethyl)-6,7-dihydro-5H-cyclopenta[b]pyridin-4-yl)carbamoyl)-1H-pyrazole-3-sulfonimidamide]
IC50 (read-out: hTHP-1 IC50 in 10% FBS, hTHP-1 assay containing 10% fetal bovine serum, Table B5, listed as 848): 8 to 40 nM

SMILES: Cc1c(C(F)(F)F)nc2c(c1NC(=O)N=S(N)(=O)c1nn(C(C)(F)F)cc1F)CCC2 (single isomer, unassigned) [Compound 1004a, (R) or (S)-1-(1,1-Difluoroethyl)-4-fluoro-N′-((3-methyl-2-(trifluoromethyl)-6,7-dihydro-5H-cyclopenta[b]pyridin-4-yl)carbamoyl)-1H-pyrazole-3-sulfonimidamide]
IC50 (read-out: hTHP-1 IC50 in 10% FBS, hTHP-1 assay containing 10% fetal bovine serum, Table B5, listed as 832): 40 to 200 nM

Other lines, results leading:

IC50 (read-out: hTHP-1 IC50 in 10% FBS, hTHP-1 assay containing 10% fetal bovine serum, Table B5, listed as 838): 40 to 200 nM
SMILES: CC(C)(O)c1csc(S(N)(=O)=NC(=O)Nc2c3c(nc4c2CCC4)CCC3)c1F (single isomer, unassigned) [Compound 1107a, (R) or (S)-3-fluoro-N′-((1,2,3,5,6,7-hexahydrodicyclopenta[b,e]pyridin-8-yl)carbamoyl)-4-(2-hydroxypropan-2-yl)thiophene-2-sulfonimidamide]

IC50 (read-out: hTHP-1 IC50 in 10% FBS, hTHP-1 assay containing 10% fetal bovine serum, Table B5, listed as 842): 8 to 40 nM
SMILES: C[C@@H]1CCc2c1nc1c(c2NC(=O)N=S(N)(=O)c2scc(C(C)(C)O)c2F)CCC1 (single isomer, unassigned) [Compound 1109a, (R) or (S)-3-fluoro-4-(2-hydroxypropan-2-yl)-N′-(((R)-3-methyl-1,2,3,5,6,7-hexahydrodicyclopenta [b,e]pyridin-8-yl)carbamoyl) thiophene-2-sulfonimidamide]

IC50 (read-out: hTHP-1 IC50 in 10% FBS, hTHP-1 assay containing 10% fetal bovine serum, Table B5, listed as 831): 1000 to 5000 nM
SMILES: CC(C)(O)c1csc(S(N)(=O)=NC(=O)Nc2c3c(nc(C4CC4)c2C2CC2)CCC3)c1F (single isomer, unassigned) [Compound 1106b, (S) or (R)-N′-((2,3-dicyclopropyl-6,7-dihydro-5H-cyclopenta[b]pyridin-4-yl)carbamoyl)-3-fluoro-4-(2-hydroxypropan-2-yl)thiophene-2-sulfonimidamide]

IC50 [2]: 40 to 200 nM
SMILES: NS(=O)(=NC(=O)Nc1c2c(nc3c1CCC31CC1)CCC2)c1ccn(C2CC2)n1 (centres unmarked) [Example 861, 1-Cyclopropyl-N′-((1′,5′,6′,7′-tetrahydro-2′H-spiro[cyclopropane-1,3′-dicyclopenta[b,e]pyridin]-8′-yl)carbamoyl)-1H-pyrazole-3-sulfonimidamide]

IC50 (read-out: hTHP-1 IC50 in 10% FBS, hTHP-1 assay containing 10% fetal bovine serum, Table B5, listed as 850): 8 to 40 nM
SMILES: C[C@@H]1CCc2c1nc1c(c2NC(=O)N=S(N)(=O)c2nn(C(C)(F)F)cc2F)CCC1 (single isomer, unassigned) [Compound 1117a, (R) or (S)-1-(1,1-difluoroethyl)-4-fluoro-N′-(((R)-3-methyl-1,2,3,5,6,7-hexahydrodicyclopenta[b,e]pyridin-8-yl)carbamoyl)-1H-pyrazole-3-sulfonimidamide]

IC50 (read-out: hTHP-1 IC50 in 10% FBS, hTHP-1 assay containing 10% fetal bovine serum, Table B6): 40 to 200 nM
SMILES: NS(=O)(=NC(=O)Nc1c2c(nc3c1CCC3)CCC2)c1nn(C2CC2)cc1F (single isomer, unassigned) [Example 863, (R) or (S)-1-cyclopropyl-4-fluoro-N′-((1,2,3,5,6,7-hexahydrodicyclopenta[b,e]pyridin-8-yl)carbamoyl)-1H-pyrazole-3-sulfonimidamide]

IC50 [2]: 40 to 200 nM
SMILES: NS(=O)(=NC(=O)Nc1c2c(nc3c1CCC31CC1)CCC2)c1nn(C2CC2)cc1F (single isomer, unassigned) [Example 865, (R) or (S)-1-cyclopropyl-4-fluoro-N′-((1′,5′,6′,7′-tetrahydro-2′H-spiro[cyclopropan-1,3′-dicyclopenta[b,e]pyridin]-8′-yl)carbamoyl)-1H-pyrazole-3-sulfonimidamide]

IC50 [1]: 40 to 200 nM
SMILES: Cc1c(C(F)(F)F)nc2c(c1NC(=O)N=S(N)(=O)c1nn(C3CC3)cc1F)CCC2 (centres unmarked) [Compound 1114, 1-Cyclopropyl-4-fluoro-N′-((3-methyl-2-(trifluoromethyl)-6,7-dihydro-5H-cyclopenta [b]pyridin-4-yl)carbamoyl)-1H-pyrazole-3-sulfonimidamide]

IC50 (read-out: hTHP-1 IC50 in 10% FBS, hTHP-1 assay containing 10% fetal bovine serum, Table B5, listed as 839): 1000 to 5000 nM
SMILES: CC(C)(O)c1csc(S(N)(=O)=NC(=O)Nc2c3c(nc4c2CCC4)CCC3)c1F (single isomer, unassigned) [Compound 1107b, (S) or (R)-3-fluoro-N′-((1,2,3,5,6,7-hexahydrodicyclopenta[b,e]pyridin-8-yl)carbamoyl)-4-(2-hydroxypropan-2-yl)thiophene-2-sulfonimidamide]
